Several values for one entry are separate records, joined by “and”; a condition that tells them apart may be missing. Equal values may be shown once. Toxic doses and inconclusive results are not listed. Cut-off read from the data, not from the text of the source: active = T/C of 150% or more; inactive = T/C below 125%.
System: L1210 leukemia ip in BDF1 mice, survival T/C
Experiment: NCI In Vivo Anticancer Drug Screen. Data for tumor model L1210 Leukemia (intraperitoneal) in B6D2F1 (BDF1) mice
Details: endpoint: mean survival time, higher = longer survival
In short: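 In this screen, tumor-bearing mice given compound are compared to those given vehicle, and their survival values are reported as a treated-to-control quotient.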

[1] = dose: 100.0 mg/kg/injection, schedule: Q01DX001 (ip), vehicle: saline
[2] = dose: 200.0 mg/kg/injection, schedule: Q01DX001 (ip), vehicle: saline
[3] = dose: 400.0 mg/kg/injection, schedule: Q01DX001 (ip), vehicle: saline
[4] = dose: 100.0 mg/kg/injection, schedule: Q04DX003 (ip), vehicle: saline with Tween-80
[5] = dose: 200.0 mg/kg/injection, schedule: Q04DX003 (ip), vehicle: saline with Tween-80
[6] = dose: 400.0 mg/kg/injection, schedule: Q04DX003 (ip), vehicle: saline with Tween-80
[7] = dose: 100.0 mg/kg/injection, schedule: Q04DX002 (ip), vehicle: saline with Tween-80
[8] = dose: 200.0 mg/kg/injection, schedule: Q04DX002 (ip), vehicle: saline with Tween-80
[9] = dose: 400.0 mg/kg/injection, schedule: Q04DX002 (ip), vehicle: saline with Tween-80
[10] = dose: 100.0 mg/kg/injection, schedule: Q01DX009 (ip), vehicle: saline with Tween-80
[11] = dose: 200.0 mg/kg/injection, schedule: Q01DX009 (ip), vehicle: saline with Tween-80
[12] = dose: 100.0 mg/kg/injection, schedule: Q04DX003 (ip), vehicle: Klucel (hydroxypropylcellulose) (HPC)
[13] = dose: 200.0 mg/kg/injection, schedule: Q04DX003 (ip), vehicle: Klucel (hydroxypropylcellulose) (HPC)
[14] = dose: 400.0 mg/kg/injection, schedule: Q04DX003 (ip), vehicle: Klucel (hydroxypropylcellulose) (HPC)

Measured: T/C

O=C1c2ccccc2C(=O)C1N=Nc1ccccc1
inactive: dose: 50.0 mg/kg/injection, schedule: Q01DX001 (ip), vehicle: saline 102 % of control | [1] 100 % of control | [2] 94 % of control | [3] 96 % of control

c1ccc2nc(C3CO3)cnc2c1 (stereo not given)
inactive: [4] 100 % of control | [5] 91 % of control | [6] 99 % of control

O=C(O)c1ccc(/C=N/N=C2c3ccccc3-c3ccccc32)cc1
inactive: dose: 75.0 mg/kg/injection, schedule: Q01DX001 (ip), vehicle: other 91 % of control | dose: 150.0 mg/kg/injection, schedule: Q01DX001 (ip), vehicle: other 86 % of control | dose: 300.0 mg/kg/injection, schedule: Q01DX001 (ip), vehicle: other 95 % of control

CC1=C(Cl)C(=O)C(Cl)=C(C)C1=O
inactive: dose: 5.5 mg/kg/injection, schedule: Q01DX Z (ip), vehicle: methylcellulose (MC) 93 % of control | dose: 8.3 mg/kg/injection, schedule: Q01DX Z (ip), vehicle: methylcellulose (MC) 107 % of control | dose: 12.5 mg/kg/injection, schedule: Q01DX Z (ip), vehicle: methylcellulose (MC) 102 % of control

CC(=O)OCCN(C)C
inactive: dose: 75.0 mg/kg/injection, schedule: Q01DX009 (ip), vehicle: saline 104 % of control | dose: 100.0 mg/kg/injection, schedule: Q04DX002 (ip), vehicle: saline 100 % of control | dose: 150.0 mg/kg/injection, schedule: Q01DX009 (ip), vehicle: saline 101 % of control | dose: 200.0 mg/kg/injection, schedule: Q04DX002 (ip), vehicle: saline 110 % of control | dose: 300.0 mg/kg/injection, schedule: Q01DX009 (ip), vehicle: saline 101 % of control | dose: 400.0 mg/kg/injection, schedule: Q04DX002 (ip), vehicle: saline 113 % of control

O=S(=O)(CCCCl)Nc1ccccn1
inactive: [7] 100 % of control | [8] 93 % of control | [9] 93 % of control

CN(C)C(=O)OCC[N+](C)(C)CCCCCC[N+](C)(C)CCOC(=O)N(C)C
inactive: dose: 12.0 mg/kg/injection, schedule: Q04DX003 (ip), vehicle: saline 105 % of control | dose: 25.0 mg/kg/injection, schedule: Q04DX003 (ip), vehicle: saline 96 % of control | dose: 50.0 mg/kg/injection, schedule: Q04DX003 (ip), vehicle: saline 97 % of control | dose: 75.0 mg/kg/injection, schedule: Q04DX003 (ip), vehicle: saline 92 % of control

C[n+]1cccc2cccc(O)c21
inactive: dose: 100.0 mg/kg/injection, schedule: Q04DX002 (ip), vehicle: Klucel (hydroxypropylcellulose) (HPC) 115 % of control

O=c1[nH]c(SCc2cccc([N+](=O)[O-])c2)nc2nc[nH]c12
inactive: dose: 50.0 mg/kg/injection, schedule: Q01DX001 (ip), vehicle: Klucel (hydroxypropylcellulose) (HPC) 96 % of control | dose: 100.0 mg/kg/injection, schedule: Q01DX001 (ip), vehicle: Klucel (hydroxypropylcellulose) (HPC) 100 % of control | dose: 200.0 mg/kg/injection, schedule: Q01DX001 (ip), vehicle: Klucel (hydroxypropylcellulose) (HPC) 107 % of control

CCOC(=O)c1ccc(NC(=O)Nc2ccc(OC)cc2Cl)cc1
inactive: dose: 100.0 mg/kg/injection, schedule: Q01DX001 (ip), vehicle: saline with Tween-80 96 % of control | [10] 104 % of control | [7] 94 % of control and 90 % of control | [4] 101 % of control | dose: 200.0 mg/kg/injection, schedule: Q01DX001 (ip), vehicle: saline with Tween-80 91 % of control | [11] 104 % of control | [8] 90 % of control and 91 % of control | [5] 97 % of control | dose: 400.0 mg/kg/injection, schedule: Q01DX001 (ip), vehicle: saline with Tween-80 106 % of control | dose: 400.0 mg/kg/injection, schedule: Q01DX009 (ip), vehicle: saline with Tween-80 92 % of control | [9] 94 % of control and 87 % of control | [6] 92 % of control

O=C1CCC(=O)N1O
inactive: dose: 50.0 mg/kg/injection, schedule: Q01DX Z (ip), vehicle: saline 94 % of control | dose: 100.0 mg/kg/injection, schedule: Q01DX009 (ip), vehicle: saline 93 % of control | dose: 100.0 mg/kg/injection, schedule: Q01DX Z (ip), vehicle: saline 93 % of control | dose: 200.0 mg/kg/injection, schedule: Q01DX009 (ip), vehicle: saline 90 % of control | dose: 200.0 mg/kg/injection, schedule: Q01DX Z (ip), vehicle: saline 96 % of control | dose: 400.0 mg/kg/injection, schedule: Q01DX009 (ip), vehicle: saline 92 % of control | dose: 400.0 mg/kg/injection, schedule: Q01DX Z (ip), vehicle: saline 93 % of control

CC12CCC(C)(O1)C1C(=O)OC(=O)C12 (stereo not given)
inactive: [12] 96 % of control | [13] 98 % of control | [14] 98 % of control

O=C(N/N=C\c1cc(Cl)ccc1[N+](=O)[O-])c1ccco1
inactive: dose: 200.0 mg/kg/injection, schedule: Q01DX001 (ip), vehicle: other 93 % of control

O=[N+]([O-])c1cc([N+](=O)[O-])c(NC(c2ccccc2)C(O)c2ccccc2)c([N+](=O)[O-])c1 (stereo not given)
inactive: dose: 100.0 mg/kg/injection, schedule: Q04DX003 (ip), vehicle: acetone 98 % of control | dose: 200.0 mg/kg/injection, schedule: Q04DX003 (ip), vehicle: acetone 96 % of control | dose: 400.0 mg/kg/injection, schedule: Q04DX003 (ip), vehicle: acetone 93 % of control

COC(=O)c1ccc(C)cc1C(=O)OC
inactive: dose: 50.0 mg/kg/injection, schedule: Q01DX009 (ip), vehicle: saline with Tween-80 107 % of control | [10] 111 % of control | [11] 107 % of control

O=C(O)c1ccc(NC(C[N+](=O)[O-])C(F)(F)C(F)(F)C(F)(F)F)cc1 (stereo not given)
inactive: dose: 25.0 mg/kg/injection, schedule: Q04DX003 (ip), vehicle: Klucel (hydroxypropylcellulose) (HPC) 103 % of control | dose: 50.0 mg/kg/injection, schedule: Q04DX003 (ip), vehicle: Klucel (hydroxypropylcellulose) (HPC) 93 % of control | dose: 100.0 mg/kg/injection, schedule: Q01DX009 (ip), vehicle: saline sonified 95 % of control | [12] 103 % of control and 115 % of control | dose: 200.0 mg/kg/injection, schedule: Q01DX009 (ip), vehicle: saline sonified 86 % of control | [13] 102 % of control | dose: 400.0 mg/kg/injection, schedule: Q01DX009 (ip), vehicle: saline sonified 88 % of control | [14] 100 % of control

CCCCC1C(=O)N2c3ccccc3-c3ccccc3N2C1=O
inactive: dose: 75.0 mg/kg/injection, schedule: Q01DX001 (ip), vehicle: saline 99 % of control | dose: 150.0 mg/kg/injection, schedule: Q01DX001 (ip), vehicle: saline 96 % of control | dose: 300.0 mg/kg/injection, schedule: Q01DX001 (ip), vehicle: saline 101 % of control

CCCCSP(=S)(Cc1ccccc1)SCCCC
inactive: [12] 95 % of control | [13] 93 % of control

Cn1c(=O)c2[nH]c(CCCSSCCCc3nc4c([nH]3)c(=O)n(C)c(=O)n4C)nc2n(C)c1=O
inactive: [1] 96 % of control | [2] 96 % of control | [3] 96 % of control
